Test results published in PMC8533986, “[^99mTc]Tc-DB15 in GRPR-Targeted Tumor Imaging with SPECT: From Preclinical Evaluation to the First Clinical Outcomes” (Cancers, 2021).

How the values were obtained:
[1] = tested on: T-47D cells; assay: Time-dependent uptake of [99mTc]Tc-DB15 in T-47D cells; format: cell-based, human
Procedure: (§1) 2.5. Time-Dependent Uptake of [^99mTc]Tc-DB15 in PC-3 and T-47D Cells
(§2) One day before the experiment, PC-3 or T-47D cells were seeded in 6-well plates (≈1 × 10^6 cells per well). Next day, the cells were rinsed with ice-cold internalization medium (IM, RPMI-1640 GlutaMAX-I, supplemented by 1% (v/v) FBS). […] [^99mTc]Tc-DB15 (250 fmol total peptide in 150 µL 0.5% BSA-PBS) was added in all wells and the plates were incubated at for 15 min, 30 min, 1 h and 2 h at 37 °C in an Incubator-Orbital Shaker unit (MPM Instr. SrI, Bernareggio, MI, Italy). Cells were then placed on ice, the medium was collected, and the plates were rinsed with 0.5% BSA-PBS (1 mL). Membrane-bound fractions were collected after treatment in acid-wash solution (2 × 600 µL; 50 mM glycine buffer pH 2.8, 0.1 M NaCl). Internalized fractions were collected after treatment with 1 N NaOH (2 × 600 µL), as previously described. After counting of radioactivity of all collected fractions in the gamma counter, the percentage of specific internalized and membrane-bound fractions per time point were calculated with Microsoft Excel and the respective curves were drawn. Specific internalized and membrane-bound counts were determined by subtracting the respective non-specific from the respective total counts. Results represent specific internalized ±SD of total added radioactivity per well from three experiments performed in triplicate.

[2] = tested on: BC patients; settings: two advanced BC patients, imaging 15 min-24 h pi
Procedure: Two BC patients were tested for the potential of pathological lesion detection after injection of [^99mTc]Tc-DB15.
A single dose of [^99mTc]Tc-DB15 (5-mL, 700–800 MBq corresponding to 20 μg DB15) was administered as a slow intravenous (iv) injection over 1 min. Vital signs (pulse rate, systolic and diastolic BP) were measured prior to the injection of [^99mTc]DB15 as well as within 15 min pi. Likewise, ECGs were performed prior to the injection, continuously during the injection and for 15 min pi. ECG and vital signs were measured again after the last scan was completed and blood tests for hematology and biochemistry (glucose, creatinine, bilirubin, transaminases, sodium, potassium, calcium) were performed. The laboratory evaluation was repeated 7, 14 and 28 days after imaging. Adverse events (AEs) were assessed and graded according to National Cancer Institute Common Toxicity Criteria for Adverse Events (CTCAE) Version 3.0.
Gamma camera imaging was performed on a Symbia Intevo Bold dual-head SPECT/CT scanner (Siemens Healthineers AG; Erlangen, Germany) equipped with a 16-slice CT scanner. Planar imaging of the whole body and SPECT/CT images of the thorax were obtained 15 min, 1 h, 3 h, and 24 h pi. Planar and SPECT/CT images were inspected for increased uptake by two experienced nuclear medicine specialists.

[3] = tested on: PC-3 cells; assay: Time-dependent uptake of [99mTc]Tc-DB15 in PC-3 cells; format: cell-based, human
Procedure: as §1, §2

[4] = target: T1, human GRPR (Homo sapiens, UniProt P30550); assay: Competition binding assay, displacement of [125I]I-[Tyr4]BBN from PC-3 cell membranes; settings: PC-3 cell membrane homogenates, 1 h at 22 °C, pH 7.4, mean ± SD of three experiments in triplicate, read-out: IC50, binding affinity for the human GRPR
T1 construct: displacement of the [^125I]I-[Tyr^4]BBN radioligand from freshly harvested PC-3 cell membranes; host or cells: PC-3 human prostate adenocarcinoma cells (membrane homogenate)
T1 sequence (P30550 whole entry): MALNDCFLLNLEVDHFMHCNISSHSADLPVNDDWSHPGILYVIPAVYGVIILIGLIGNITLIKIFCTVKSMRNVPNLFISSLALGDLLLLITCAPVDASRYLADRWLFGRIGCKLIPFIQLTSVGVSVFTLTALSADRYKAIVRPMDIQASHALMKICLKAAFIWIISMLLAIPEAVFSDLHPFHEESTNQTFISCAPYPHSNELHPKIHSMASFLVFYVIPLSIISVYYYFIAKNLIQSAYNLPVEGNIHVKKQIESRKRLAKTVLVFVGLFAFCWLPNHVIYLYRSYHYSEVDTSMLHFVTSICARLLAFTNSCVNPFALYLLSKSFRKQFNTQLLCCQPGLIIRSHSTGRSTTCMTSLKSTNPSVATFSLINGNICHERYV
Procedure: 2.4. Competition Binding Assays in PC-3 Cell-Membranes
Rapid filtration through glass fiber filters (Whatman GF/B, presoaked in binding buffer for at least 1 h) on a Brandel Cell Harvester (Adi Hassel Ingenieur Büro, Munich, Germany) and rinsing with ice-cold washing buffer (10 mM HEPES pH 7.4, 150 mM NaCl) followed. Filter radioactivity was measured in a gamma counter (automated multi-sample well-type instrument with a NaI(Tl) 3” crystal, Canberra Packard Cobra^TM Quantum U5003/1, Auto-Gamma® counting system). […] Values are expressed as mean ± standard deviation (SD) of three experiments performed in triplicate.

[5] = 30 min incubation, 37 °C, 250 fmol total peptide, mean ± SD, three experiments in triplicate
[6] = all time points (15 min-2 h), results not shown

IC50 [4] [nM]	Molecule	portion found within the cells (internalized) ([1]; 37 °C) [%]	specific cell uptake (cell-associated fraction of total added activity) [1, 5] [%]	cell association in the presence of 1 μM [Tyr4]BBN [1, 6] [%]	Pathological findings on planar and SPECT/CT images [2]	portion found within the cells (internalized) ([3]; 37 °C) [%]	specific cell uptake (cell-associated fraction of total added activity) [3, 5] [%]	cell association in the presence of 1 μM [Tyr4]BBN [3, 6] [%]
–	[^99mTc]Tc-N4-AMA-DGA-DPhe^6,Sar^11,LeuNHEt^13]BBN(6-13) [[^99mTc]Tc-DB15]	< 6	24.2 ± 0.7	< 0.9	increased uptake of [^99mTc]Tc-DB15 in the BC metastases in both patients	< 6	13.1 ± 0.1	< 0.9
0.37 ± 0.03	CCNC(=O)[C@H](CC(C)C)NC(=O)[C@H](Cc1c[nH]cn1)NC(=O)CN(C)C(=O)[C@@H](NC(=O)[C@H](C)NC(=O)[C@H](Cc1c[nH]c2ccccc12)NC(=O)[C@H](CCC(N)=O)NC(=O)[C@@H](Cc1ccccc1)NC(=O)COCC(=O)Nc1ccc(CNC(=O)C(CNCCN)CNCCN)cc1)C(C)C [DB15, N4-AMA-DGA-DPhe^6,Sar^11,LeuNHEt^13]BBN(6-13)]	–	–	–	–	–	–	–
